The supplement of paper PMC11061612

Legend:
[1] = tested on: JJN-3 (Plasma Cell Myeloma); experiment: combination Emax (second highest fraction inhibited in the dose matrix, 72 h); higher = more inhibition; extreme values may be limits of the assay
Method in brief: (§1)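 After 24 hours at 37°C and 5% CO2 in 1536-well plates, cells in DMEM/F12 or RPMI plus 10% FBS received two-drug dose matrices for 72 hours. Viability came from CellTiter-Glo 2.0 luminescence and was scaled as inhibition, anchored at 0 by vehicle wells and at 1 by blank wells. Combination Emax is taken as the second-highest inhibition in the matrix, and Bliss excess as the observed combination effect less EA + EB − EA·EB, with EA and EB the single-agent effects.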

[2] = tested on: NCI-H1944 (Lung Adenocarcinoma); experiment: as above
Method in brief: as §1

[3] = tested on: GRANTA-519 (B-Cell Non-Hodgkin's Lymphoma); experiment: as above
Method in brief: as §1

[4] = tested on: DK-MG (Glioblastoma); experiment: as above
Method in brief: as §1

[5] = tested on: HT-1197 (Bladder Carcinoma); experiment: as above
Method in brief: as §1

[6] = tested on: RPMI-8402 (T-Lymphoblastic Leukemia); experiment: as above
Method in brief: as §1

[7] = tested on: ATN-1 (T-Lymphoblastic Leukemia); experiment: as above
Method in brief: as §1

[8] = tested on: Daudi (Burkitt's Lymphoma); experiment: as above
Method in brief: as §1

[9] = tested on: NCI-H2009 (Lung Adenocarcinoma); experiment: as above
Method in brief: as §1

[10] = tested on: A375 (Melanoma); experiment: as above
Method in brief: as §1

[11] = tested on: OCI-M1 (Acute Myeloid Leukemia); experiment: as above
Method in brief: as §1

[12] = tested on: RVH-421 (Melanoma); experiment: as above
Method in brief: as §1

[13] = tested on: TK (B-Cell Non-Hodgkin's Lymphoma); experiment: as above
Method in brief: as §1

[14] = tested on: C32 (Melanoma); experiment: as above
Method in brief: as §1

[15] = tested on: SNU-1 (Gastric Carcinoma); experiment: as above
Method in brief: as §1

[16] = tested on: NCI-H1975 (Lung Adenocarcinoma); experiment: as above
Method in brief: as §1

[17] = tested on: KNS-62 (Squamous Cell Lung Carcinoma); experiment: as above
Method in brief: as §1

[18] = tested on: RVH-421 (Melanoma); experiment: Bliss excess, mean over the matrix (fraction); higher = more synergy
Method in brief: as §1
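Wherever Bliss excess, mean over the matrix is given: after 72 h of two-drug dosing.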

| Compound | combination Emax [1] | combination Emax [2] | combination Emax [3] | combination Emax [4] | combination Emax [5] | combination Emax [6] | combination Emax [7] | combination Emax [8] | combination Emax [9] | combination Emax [10] | combination Emax [11] | combination Emax [12] | combination Emax [13] | combination Emax [14] | combination Emax [15] | combination Emax [16] | combination Emax [17] | Bliss excess [18] |
| --- | --- | --- | --- | --- | --- | --- | --- | --- | --- | --- | --- | --- | --- | --- | --- | --- | --- | --- |
| COc1cccc(OCCCN)c1-c1cc(Nc2cnc(C#N)cn2)n[nH]1 [Prexasertib] + CN(C)CCCOc1ccc(-c2ccc3ncc4c(c3c2)n(C2CCOCC2)c(=O)n4C)cn1 [AZD0156] (first compound max 1 µM, 7x7, partner max 1 µM) | 0.976 | 0.785 | 0.873 | 0.32 | 0.571 | 1 | 1 | 0.965 | 0.462 | 0.851 | 0.951 | 0.314 | 0.918 | 0.774 | 0.842 | 0.291 | 0.659 | -0.0325 |
| Cc1c2c(nn1C)CSCc1cc(n(C)n1)CSc1cc(c3ccccc3c1)OCCCc1c(C(=O)O)n(C)c3c-2c(Cl)ccc13 [AZD5991] + Cc1cc2ncnn2cc1Nc1ncc2c(n1)n(C1CCOCC1)c(=O)n2C [AZD7648] (first compound max 1 µM, 7x7, partner max 10 µM) | 1 | 0.384 | 0.214 | 0.509 | 0.267 | 0.836 | 0.925 | 0.328 | 0.147 | 0.331 | 0.145 | 0.255 | 0.204 | 0.198 | 0.485 | 0.46 | 0.277 | -0.0432 |
| CCc1c2c(nc3ccc(O)cc13)-c1cc3c(c(=O)n1C2)COC(=O)[C@]3(O)CC [SN-38] + CN(C)CCCOc1ccc(-c2ccc3ncc4c(c3c2)n(C2CCOCC2)c(=O)n4C)cn1 [AZD0156] (first compound max 0.3 µM, 7x7, partner max 1 µM) | 0.626 | 0.686 | 0.93 | 0.241 | 0.156 | 1 | 1 | 0.95 | 0.562 | 0.993 | 0.991 | 0.191 | 0.991 | 0.688 | 0.942 | 0.514 | 0.872 | -0.0576 |
| Cc1c2c(nn1C)CSCc1cc(n(C)n1)CSc1cc(c3ccccc3c1)OCCCc1c(C(=O)O)n(C)c3c-2c(Cl)ccc13 [AZD5991] + CC1(C)CCC(CN2CCN(c3ccc(C(=O)NS(=O)(=O)c4ccc(NCC5CCOCC5)c([N+](=O)[O-])c4)c(Oc4cnc5[nH]ccc5c4)c3)CC2)=C(c2ccc(Cl)cc2)C1 [Venetoclax] (first compound max 1 µM, 7x7, partner max 1 µM) | 1 | 0.214 | 0.472 | 0.613 | 0.148 | 0.932 | 0.968 | 0.258 | 0.151 | 0.307 | 0.175 | 0.358 | 1 | 0.626 | 0.933 | 0.378 | – | -0.0237 |
| Cc1c2c(nn1C)CSCc1cc(n(C)n1)CSc1cc(c3ccccc3c1)OCCCc1c(C(=O)O)n(C)c3c-2c(Cl)ccc13 [AZD5991] + C1CN(CCC1(C(=O)N[C@@H](CCO)C2=CC=C(C=C2)Cl)N)C3=NC=NC4=C3C=CN4 [Capivasertib] (first compound max 1 µM, 7x7, partner max 3 µM) | 1 | 0.344 | 0.0859 | 0.86 | 0.419 | 0.929 | 0.989 | 0.348 | 0.158 | 0.2 | 0.115 | 0.411 | 0.17 | 0.266 | 0.613 | 0.623 | 0.31 | -0.0513 |
| CCN(CCO)CCCOc1ccc2c(Nc3cc(CC(=O)Nc4cccc(F)c4)[nH]n3)ncnc2c1 [AZD2811] + C=CCn1c(=O)c2cnc(Nc3ccc(N4CCN(C)CC4)cc3)nc2n1-c1cccc(C(C)(C)O)n1 [AZD1775] (first compound max 1 µM, partner max 1 µM) | 0.694 | 0.471 | 0.798 | 0.285 | 0.481 | 1 | 1 | 0.786 | 0.749 | 0.482 | 0.922 | 0.0949 | 0.901 | 0.359 | 0.675 | 0.364 | 0.169 | -0.0694 |
| CC1(C)CCC(CN2CCN(c3ccc(C(=O)NS(=O)(=O)c4ccc(NCC5CCOCC5)c([N+](=O)[O-])c4)c(Oc4cnc5[nH]ccc5c4)c3)CC2)=C(c2ccc(Cl)cc2)C1 [Venetoclax] + C[C@@H]1COCCN1C2=NC(=NC(=C2)C3(CC3)[S@](=N)(=O)C)C4=C5C=CNC5=NC=C4 [AZD6738] (first compound max 1 µM, 7x7, partner max 10 µM) | 0.791 | 0.892 | 0.99 | 0.336 | 0.441 | 0.992 | 0.973 | 0.725 | 0.415 | 0.674 | 1 | 0.26 | 1 | 0.666 | 0.798 | 0.433 | 0.523 | -0.0286 |
| Cc1c2c(nn1C)CSCc1cc(n(C)n1)CSc1cc(c3ccccc3c1)OCCCc1c(C(=O)O)n(C)c3c-2c(Cl)ccc13 [AZD5991] + CN(C)CCCOc1ccc(-c2ccc3ncc4c(c3c2)n(C2CCOCC2)c(=O)n4C)cn1 [AZD0156] (first compound max 1 µM, 7x7, partner max 1 µM) | 1 | 0.259 | 0.209 | 0.754 | 0.217 | 0.795 | 0.929 | 0.288 | 0.182 | 0.457 | 0.203 | 0.284 | 0.313 | 0.24 | 0.584 | 0.599 | 0.174 | 0.0113 |
| CN(CCO)CC[C@H](CSc1ccccc1)Nc1ccc(S(=O)(=O)NC(=O)c2ccc(N3CCC([C@@H](O)c4ccccc4-c4ccc(Cl)cc4)CC3)cc2)cc1S(=O)(=O)C(F)(F)F [AZD4320] + Cn1cnc2c(F)c(Nc3ccc(Br)cc3Cl)c(C(=O)NOCCO)cc21 [Selumetinib] (first compound max 1 µM, 7x7, partner max 3 µM) | 0.731 | 0.702 | 1 | 0.336 | 0.41 | 0.999 | 0.732 | 0.65 | 0.606 | 0.749 | 1 | 0.643 | 0.987 | 0.975 | 0.952 | 0.417 | 0.399 | 0.106 |
| CC1(C)CCC(CN2CCN(c3ccc(C(=O)NS(=O)(=O)c4ccc(NCC5CCOCC5)c([N+](=O)[O-])c4)c(Oc4cnc5[nH]ccc5c4)c3)CC2)=C(c2ccc(Cl)cc2)C1 [Venetoclax] + Cc1cc2ncnn2cc1Nc1ncc2c(n1)n(C1CCOCC1)c(=O)n2C [AZD7648] (first compound max 1 µM, 7x7, partner max 10 µM) | 0.327 | 0.353 | 0.332 | 0.265 | 0.214 | 0.287 | 0.47 | 0.247 | 0.12 | 0.233 | 0.234 | 0.221 | 0.967 | 0.396 | 0.288 | 0.392 | 0.219 | -0.0443 |
| COc1cccc2c1C(=O)c1c(O)c3c(c(O)c1C2=O)C[C@@](O)(C(=O)CO)C[C@@H]3O[C@H]1C[C@H](N)[C@H](O)[C@H](C)O1 [Doxorubicin] + Cc1cc2ncnn2cc1Nc1ncc2c(n1)n(C1CCOCC1)c(=O)n2C [AZD7648] (first compound max 1 µM, 7x7, partner max 10 µM) | 0.735 | 0.625 | 0.856 | 0.469 | 0.735 | 1 | 0.996 | 0.956 | 0.546 | 0.949 | 0.963 | 0.404 | 0.73 | 0.68 | 0.848 | 0.932 | 0.484 | 0.0105 |
| COc1cccc(OCCCN)c1-c1cc(Nc2cnc(C#N)cn2)n[nH]1 [Prexasertib] + CCc1c2c(nc3ccc(O)cc13)-c1cc3c(c(=O)n1C2)COC(=O)[C@]3(O)CC [SN-38] (first compound max 1 µM, 7x7, partner max 0.3 µM) | 0.981 | 0.857 | 1 | 0.295 | 0.543 | 1 | 0.999 | 0.987 | 0.886 | 0.962 | 1 | 0.363 | 1 | 0.714 | 0.953 | 0.861 | 0.874 | -0.069 |
| CC1(C)CCC(CN2CCN(c3ccc(C(=O)NS(=O)(=O)c4ccc(NCC5CCOCC5)c([N+](=O)[O-])c4)c(Oc4cnc5[nH]ccc5c4)c3)CC2)=C(c2ccc(Cl)cc2)C1 [Venetoclax] + CCN(CCO)CCCOc1ccc2c(Nc3cc(CC(=O)Nc4cccc(F)c4)[nH]n3)ncnc2c1 [AZD2811] (first compound max 1 µM, 7x7, partner max 1 µM) | 0.806 | 0.255 | 0.925 | 0.283 | 0.221 | 0.735 | 0.866 | 0.366 | 0.236 | 0.371 | 0.276 | 0.164 | 1 | 0.385 | 0.297 | 0.216 | 0.275 | -0.0636 |
